Assay results from article PMC6054118, “In vivo study and thermodynamic investigation of two lanthanum complexes, La(dpp)3 and La(XT), for the treatment of bone resorption disorders” (Chemical Science, 2015).
Where “and” joins values, the source holds several entries; their conditions need not be identical. Equal values may be shown once. Read-outs that look alike come from different tables or passages of the source.

Assays:
[1] = set-up: method as in Cawthray et al. 37; conditions: ITC, 37 °C, ref Cawthray et al. 37; cited from earlier work
[2] = isothermal titration calorimetry, binding to hydroxyapatite; conditions: ITC
Procedure: ITC experiments in the presence of ligand (Hdpp or XT) were carried out in either piperazine (100 mM) pH 5 or HEPES (100 mM) pH 7.4. Titrations were performed by injecting consecutive 10 μL aliquots of ligand (2.5–80 mM) or metal ion/ligand solution (2.5/10 mM for Hdpp and 81/90 mM for XT) into the ITC cell (volume = 1.4 mL) containing hydroxyapatite (0.1–1.5 mM) suspension. Hydroxylapatite suspensions were prepared by adding the required amount of hydroxyapatite to the appropriately buffered solution followed by sonication for 5 minutes. The ITC cell was stirred continuously during the titration. Control experiments (heats of dilution) were performed by titration of ligand or metal ion/ligand solution into buffer containing no hydroxyapatite. Each ITC experiment was performed in triplicate (at least). The error associated with diffusion from the syringe during baseline equilibration, the first injection was only 5 μL, and the associated small heat was not included in the data analysis.

[3] = tissue and plasma distribution of lanthanum after multiple intravenous doses (ICP-MS); type: in vivo, SD rats; conditions: for plasma levels after 5 days of treatment / La^3+ concentration in brain / La^3+ concentration in heart / La^3+ concentration in kidney / La^3+ concentration in spleen: IV 1 mg kg^–1 per day for 5 days; for plasma levels after 5 days of treatment: mean ± SD; for La^3+ concentration in brain / La^3+ concentration in heart / La^3+ concentration in kidney / La^3+ concentration in spleen: n = 6, mean ± SD; for plasma concentration, t=end, mean / plasma concentration, t=end, single animals: IV 1mg/kg/day, end of trial; for plasma concentration, t=end, mean: n=6, mean; for plasma concentration, t=end, single animals: value of each animal, 1 mg/kg/day
Procedure: (§1) Lanthanide concentration for both in vivo and in vitro studies were determined by ICP-MS analysis by the method reported previously.[30] In brief, samples were dried (vacuum centrifugation) and dissolved in conc. nitric acid (Optima) and slowly heated to 105 °C over 1 h and maintained at 105 °C for 24 h. Hydrogen peroxide (approximately 2 mL) was added and samples heated at 140 °C for 24 h. Samples were evaporated to dryness at 150 °C before redissolving in 3 mL of 10% nitric acid (with 10 ppm Rh) prior to analysis by ICP-MS.
(§2) Solutions of La(dpp)3 and La(XT) (1 mg mL^–1) were prepared in 10% DMSO and stored at 4 °C. Animals were administered with a dose of 1 mg kg^–1 once daily for 5 consecutive days by intravenous injection via jugular vein port. The animals were sacrificed on the day of the 5th dose and the spleen liver, kidney lungs, heart, brain and bones were collected. Blood samples (0.5 mL) were withdrawn at pre-dose and post-dose. The blood was centrifuged for 10 min at […] at room temperature to obtain the plasma. For organ homogenization, 1 g organ was added to 2 mL normal saline. Bones were cleaned manually of all soft flesh and sectioned into knee, middle, and hip parts using a ceramic blade, and lyophilized prior to normal acid digestion.

[4] = bone (femur) distribution of lanthanum after multiple doses; type: in vivo, SD rats; conditions: 1 mg kg^–1 per day for 5 days, ANOVA p 0.006, 0.017, 0.004 (hip, mid, knee)
Procedure: as §1, §2

[5] = hydroxyapatite binding study (batch, La^3+ depletion in supernatant by ICP-MS); conditions: pH 7.4, 37 °C, excess HAP
Procedure: as §1
All time points were run in triplicate. Samples containing 10 mg of hydroxyapatite (Sigma-Aldrich) were initially incubated and agitated (37 °C, 220 rpm) with 0.9 mL HEPES buffer (100 mM, pH 7.4) in 1.5 mL Eppendorfs for 24 hours. Stock solutions (1.0 mM) of La(dpp)3 and La(XT) were prepared from the premade complexes dissolved in HEPES buffer. At the outset of the experiment, 100 μL of either stock solution was added to a sample and incubated and agitated for a set time. When the time point was reached, the supernatant was carefully removed, taking care not to disturb the residual HAP, and filtered through a 22 micron frit. […] Samples containing La(dpp)3 were also analysed by UV-Vis spectroscopy to determine Hdpp concentration. […]

[6] = set-up: method as in PMID 23299719, PMID 11442371; conditions: cited from earlier work; for pM (= –log[La^3+]): calculated at pH 7.4, 100 μM ligand, 10 μM metal
[7] = plasma clearance and pharmacokinetics after single intravenous dose; type: in vivo, SD rats
Procedure: as §1
(§3) Solutions of La(dpp)3 were prepared in 10% DMSO and the stability of the complex over time (7 days) monitored by spectrophotometric methods. The solution of La(dpp)3 was administered to the animals through cannulae implanted in their jugular veins (n = 6). The animals received a dose of 1 mg kg^–1 at time 0 h and blood samples (0.25 mL were withdrawn at pre-dose, 5, 10, 15, 30 min and 1, 2, 3, 4, 6, 10, 24, 48, 72, 96 and 144 h post-dose). The animals were sacrificed following the last time point and the spleen, liver, kidney, lungs, heart and brain were collected. Lanthanide concentrations were determined by ICP-MS analysis following acid digestion of the samples. The calibration curves were linear in the range of 0.1–100 ng mL^–1 and 1–50 ng mL^–1 in the organs and plasma; respectively. The plasma pharmacokinetic parameters were derived by non-compartmental analysis of plasma concentration-time profiles using Phoenix software (Ver. 1.3).

[8] = tissue distribution of lanthanum after single intravenous dose (ICP-MS); type: in vivo, SD rats; conditions: single IV dose 1 mg kg^–1, last sampling point 144 h
Procedure: as §1, §3

MG-63 cells = tested on: MG-63 cells; set-up: method as in PMID 17992287, PMID 23299719, PMID 11442371; conditions: earlier work of the authors, read-out: EC50 (cellular toxicity); cited from earlier work
[9] = thermodynamic stability of the complex
[10] = La^3+ in plasma, La(dpp)3 1 mg kg^–1 IV, SD rats, non-compartmental, n = 6, mean

[La+3] [Free La^3+]
apparent K a (pH 5) [1]: 2.4 (±0.2) × 10^6 M^–1

O=C(O)CN(CC(=O)O)CP(=O)(O)CN(CC(=O)O)CC(=O)O [H5XT, bis[[bis(carboxymethyl)amino]-methyl]phosphinate]
apparent K a (pH 5) ([2]; 37 °C, pH 5 (100 mM piperazine), one-site bimolecular–bimolecular model): 1.9 (±0.4) × 10^2 M^–1 | K (one-site fit) ([2]; 37 °C, pH 7.4 (100mM HEPES), 30.4mM H5XT into 1.1 mM HAP, Fig. S2): 6.61E3±1.33E3

Cc1c(O)c(=O)ccn1C [Hdpp, 3-hydroxy-1,2-dimethylpyridin-4(1H)-one]
interaction of ligand alone with HAP ([2]; pH 5, absence of La^3+): do not see any evidence of interaction | binding of ligand alone to HAP ([2]; pH 7.4, absence of La^3+): no binding is observed

O=C([O-])CN(CC(=O)[O-])CP(=O)(O)CN(CC(=O)[O-])CC(=O)[O-].[La+3] [La(XT)]
plasma levels after 5 days of treatment [3]: 5999 ± 302 ng g^–1 | La^3+ concentration in brain [3]: 112 ± 84 ng g^–1 | La^3+ concentration in heart [3]: 768 ± 115 ng g^–1 | La^3+ concentration in kidney [3]: 1320 ± 157 ng g^–1 | La^3+ concentration in spleen [3]: 3854 ± 827 ng g^–1 | plasma concentration, t=end, mean [3]: 5998.7 ng/g weight | plasma concentration, t=end, single animals [3]: 5843.4 ng/g weight and 6432.4 ng/g weight and 5776.8 ng/g weight and 6337.3 ng/g weight and 5782.3 ng/g weight and 5819.9 ng/g weight | bone distribution of lanthanum compared to La(dpp)3 [4]: slightly greater | La^3+ bound to HAP ([5]; after 4 h): less than 20% | pM (= –log[La^3+]) [6]: 12.0 | log βML [6, 9]: 13.0(3)

Cc1c([O-])c(=O)ccn1C.Cc1c([O-])c(=O)ccn1C.Cc1c([O-])c(=O)ccn1C.[La+3] [La(dpp)3]
lanthanum in plasma beyond 10 h ([7]; 1 mg kg^–1 IV, beyond 10 h): not detected | time until plasma lanthanum is back to pre-dose concentrations ([7]; 1 mg kg^–1 IV, pre-dose ∼15 ng mL^–1): ≤ 24 h | C 0 [7, 10]: 4973 ± 557 ng mL^–1 and 4973.09 ng mL^–1 | Cl [7, 10]: 77 mL h^–1 kg^–1 and 77.24 mL h^–1 kg^–1 | K el [7, 10]: 0.20 h^–1 | MRT [7, 10]: 3.46 h | T 1/2 [7, 10]: 3.61 h | V ss [7, 10]: 265 mL kg^–1 and 265.41 mL kg^–1 | plasma lanthanum level as % of C0 ([7]; within 6 hours after 1 mg kg^–1 IV): approximately 10% | La^3+ concentration in brain [8]: 15 ± 12 ng g^–1 | La^3+ concentration in heart [8]: 20 ± 7 ng g^–1 | La^3+ concentration in kidney [8]: 108 ± 95 ng g^–1 | La^3+ concentration in liver [8]: 741 ± 109 ng g^–1 | La^3+ concentration in spleen [8]: 1164 ± 350 ng g^–1 | plasma levels after 5 days of treatment [3]: 5517 ± 1188 ng g^–1 | La^3+ concentration in brain [3]: 101 ± 60 ng g^–1 | La^3+ concentration in heart [3]: 635 ± 178 ng g^–1 | La^3+ concentration in kidney [3]: 992 ± 321 ng g^–1 | La^3+ concentration in spleen [3]: 7817 ± 3211 ng g^–1 | plasma concentration, t=end, mean [3]: 5517.0 ng/g weight | plasma concentration, t=end, single animals [3]: 4971.8 ng/g weight and 4668.4 ng/g weight and 4232.8 ng/g weight and 7201.5 ng/g weight and 6740.2 ng/g weight and 5287.1 ng/g weight | La^3+ bound to HAP ([5]; first 15 minutes): greater than 80% | EC50 (MG-63 cells): > 100 µM | pM (= –log[La^3+]) [6]: 5.8 | log βML3 [6, 9]: 17.44
